Test results published in US20120121691A1, “Method for Increasing the Production of a Specific ACYL-Chain Dihydroceramide(s) for Improving the Effectiveness of Cancer Treatments” (priority 2010, published 2012).

Columns and labels:
[1] = system: MOLT-4 ALL cells; test: DIMSCAN cytotoxicity assay, MOLT-4; assay type: cell-based, human; details: MOLT-4, sphinganine 1 μM, GT-11 0.5 μM, 48 hours
Text: (§1) Cell culture. The pre-T acute lymphoblastic leukemia cell lines MOLT-4 and CCRF-CEM, small cell lung cancer cell line NCI-H146, non-small cell lung cancer cell line NCI-H1792, colon cancer cell lines LoVo and HT-29, and breast cancer cell line MCF-7, were purchased from American Type Culture Collection, Manassas, Va., and grown at 20%/5% and 5%/5%, respectively. COG-LL-317 and COG-LL-332 pre-T acute lymphoblastic leukemia cell lines were obtained from the TTUHSC Cancer Center Cell Repository and grown at 5%/5%. Cell line identities were verified by short tandem repeat analysis and mycoplasma testing was performed. Cell lines were maintained in RPMI-1640 medium supplemented with 10% fetal bovine serum (FBS, Invitrogen) in humidified, 37° C. incubators. For all experiments, ALL cell lines were seeded at […] in RPMI-1640 medium supplemented with 15% fetal bovine serum. Solid tumor cell lines were plated at 5×cells/mL in RPMI-1640 medium supplemented with 10% fetal bovine serum.
(§2) Cytotoxicity Assay. Cytoxicity is determined using the DIMSCAN assay system (R. Proffitt et al., Cytometry 24, 204-213 (1996); T. Frgala et al., Proc. AACR, 36, 303 (1995). The system employs digital imaging microscopy to quantify viable cells, which selectively accumulate fluorescein diacetate to become brightly fluorescent. The system is capable of measuring cytotoxicity over a 4-5 log dynamic range by quenching the residual fluorescence of dead and dying cells with eosin Y and quantifying the total fluorescence of viable cells using digital thresholding. Measured fluorescence is directly proportionate to the number of viable cells. A comparison of the total fluorescence of a drug-treated cell population to the fluorescence of a similar number of untreated cells yields a survival fraction. […]
(§3) The addition of C22:0-fatty acid, but not C18:0 or C22:1 fatty acids, increased cytotoxicity (FIGS. 7A-7F). […] Cytotoxicity was measured using DIMSCAN, and data was normalized to control and plotted as survival fraction (y-axis). […]

[2] = system: COG-LL-332; test: DIMSCAN cytotoxicity assay, COG-LL-332; assay type: cell-based; details: COG-LL-332, sphinganine 1 μM, GT-11 0.5 μM, 48 hours
Text: as §1, §2, §3

[3] = system: intracellular sphingolipids, MOLT-4; test: LC/MS/MS analysis of intracellular sphingolipids, MOLT-4; assay type: cell-based, human; details: for increase in corresponding dihydroceramide over sphinganine+GT-11 alone: MOLT-4, fatty acid with sphinganine+GT-11, six hours, P<0.05
Protocol: LC/MS/MS analysis of intracellular sphingolipids. Sphingolipids were separated using an Agilent 1200 HPLC (LC) and determined by ESI/MS/MS performed on a AB SCIEX 4000 QTRAP Hybrid Triple Quadrupole/Linear Ion Trap mass spectrometer (MS), operating in a multiple reaction monitoring positive ionization mode as described previously with moderate modifications (25). Briefly, 50 μL of a solution (1 μM) of internal sphingolipid standards (including -sphingosine, -sphinganine, -sphingosine-1-phosphate, and -ceramide) was added to each cell pellet sample. Lipids of each sample were extracted twice with 2 mL of the ethyl acetate/isopropyl alcohol/water (60:28:12; v:v) solvent system. Supernatants were transferred to glass tubes (Kimble Chase) and evaporated under air (10 PSI) at 40° C. After reconstitution in methanol (4 mL), 1 ml of each sample was separated for the determination of lipid phosphate. Remaining sample (3 mL) was dried and used for sphingolipid quantification. For ESI/MS/MS, the dried lipid sample was dissolved in mobile phase A. Samples were injected (10 μL) and separated on a Spectra C8SR, 150×3.0 mm, 3-μm particle size column using gradient-elution (mobile phase A/B, prepared as previously described).
Data acquisition, peak integration and analyte quantitation were performed using ABI/SCIEX Analyst 1.4.2 Software. Sphingolipid data were normalized to lipid phosphate as previously described (26). Briefly, samples were dried under air (10 PSI) and lipids were extracted using the method of Bligh and Dyer (27). Of importance for phosphate assay, only Kimble Chase disposable borosilicate tubes were used for minimal sample contamination. […] Samples were then incubated with ammonium molybdate and ascorbic acid as previously described, and absorbance ([…]) was read using a SpectraMax.
Cells were treated for 48 hours with Sa (0-4 μM)+/−GT-11 (0.5 μM) with or without C18:0-, C22:0- or C22:1-fatty acids. Cytotoxicity was measured using DIMSCAN, and data was normalized to control and plotted as survival fraction (y-axis). […]

For `CCCCCCCCCCCCCCCCCCCCCC(=O)O` [C22:0-fatty acid], the “effect of fatty acid co-treatment on cytotoxicity of sphinganine with GT-11” value (“effect of fatty acid co-treatment” for short) [1] was “increased”, the “effect of fatty acid co-treatment” value [2] was “increased” and the “increase of C22:0-dihydroceramide over sphinganine+GT-11 alone” value ([3]; MOLT-4, fatty acid with sphinganine 1 μM plus GT-11 0.5 μM, six hours, P<0.01) was 29 fold. For the same compound, the “increase in corresponding dihydroceramide over sphinganine+GT-11 alone” value [3] was “significant increases”.

For `CCCCCCCC/C=C\CCCCCCCCCCCC(=O)O` [C22:1-fatty acid], the “effect of fatty acid co-treatment” value [1] was “not”, the “effect of fatty acid co-treatment” value [2] was “not” and the “increase in corresponding dihydroceramide over sphinganine+GT-11 alone” value [3] was “significant increases”.
